Reference: patent publication US20030236212A1, “Functionalized long chain derivatives as acyl coenzyme-A mimics, compositions thereof, and methods of cholesterol management and related uses” (priority 2002, published 2003)
Like-named read-outs stand apart in the source and are kept apart here.

Key:
[1] = tested on: obese female Zucker rats; test: Oral daily treatment of obese female Zucker rats for 14 days (body weight, serum lipids, glucose, insulin); format: in vivo, rat; parameters: HDL-C / Glucose / Insulin / NEFA / BHA / TG / TC / Non HDL-C: unit not given here; conditions: for change in vivo at 10 mg/kg/day / change in vivo at 10 mg/kg / change in vivo at 30 mg/kg/day / change in vivo at 30 mg/kg / change in vivo at 100 mg/kg/day / change in vivo at 100 mg/kg: Rattus norvegicus, 336 h, oral daily, fourteen days; for change in vivo at 10 mg/kg/day / change in vivo at 30 mg/kg/day / change in vivo at 100 mg/kg/day: read-out: % wt. gain; for change in vivo at 10 mg/kg/day / change in vivo at 10 mg/kg: 10 mg/kg/day; for change in vivo at 30 mg/kg/day / change in vivo at 30 mg/kg: 30 mg/kg/day; for change in vivo at 100 mg/kg/day / change in vivo at 100 mg/kg: 100 mg/kg/day
Procedure: The dosing vehicle was administered to control animals in parallel experiments.
Body weight was determined daily prior to dosing. Animals were allowed free access to rodent chow and water throughout the study. Blood glucose was determined after a 6-hour fast in the afternoon without anesthesia from a tail vein. Serum was also prepared from a blood sample subsequently obtained from the orbital venous plexus (with O2/CO2 anesthesia) prior to and after one week treatment and used lipid and insulin determinations. At two weeks, blood glucose was again determined after a 6-hour fast without anesthesia from a tail vein. Soon thereafter, animals were sacrificed by CO2 inhalation in the afternoon and cardiac blood serum was collected and assessed for various lipids and insulin.

[2] = tested on: primary rat hepatocytes; test: Synthesis of total lipids (14C-acetate labeling) in primary rat hepatocytes; format: cell-based; conditions: for IC50: Rattus norvegicus, Hepatocyte, read-out: IC50, inhibition of lipid synthesis in primary hepatocytes
Procedure: A male Sprague-Dawley rate was anesthetized by administration of sodium pentobarbitol by intraperitoneal at 80 mg/kg. In situ perfusion of the liver was performed as follows. The abdomen of the animal was opened, the portal vein canulated, and the liver perfused with WOSH solution (149 mM NaCl, 9.2 mM Na HEPES, 1.7 mM Fructose, 0.5 mM EGTA, 0.029 mM Phenol red, 10 U/ml heparin, pH 7.5) at a flow rate of 30 ml/min for 6 minutes. To digest the liver, DSC solution (6.7 mM KCl, 143 mM NaCl, 9.2 mM Na HEPES, 5 mM CaCl2-2H2O, 1.7 mM Fructose, 0.029 mM Phenol red, 0.2% BSA, 100 U/ml collagenase Type 1,160 BAEE/ml trypsin inhibitor, pH 7.5) was perfused through the liver at a flow rate of 30 ml/min for 6 minutes at a temperature of 37° C. After digestion, cells were dispersed in a solution of DMEM-(DMEM containing 2 mM GlutMax-1, 0.2% BSA, 5% FBS, 12 nM insulin, 1.2 μM hydrocortisone) to stop the digestion process. The crude cell suspension was filtered through three layers of stainless steel mesh with pore sizes of 250, 106, and 75 μm respectively. Filtered cells were centrifuged at 50×g for two minutes and the supernatant discarded. The resulting cell pellet was resuspended in DMEM and centrifuged again. This final cell pellet was resuspended in DMEM+HS solution (DMEM containing 2 mM GlutMax-1, 20 mM delta-aminolevulinic acid, 17.4 mM MEM nonessential amino acids, 20% FBS, 12 nM insulin, 1.2 μM hydrocortisone) and plated to form monolayer cultures at a density of 100×10^3 cells/cm^2 on collagen coated culture dishes.
To test the effect of an illustrative compound of the invention on synthesis rates of total lipids, the monolayer cultures were exposed to 1, 3, 10, 30, 100, or 300 μM of Compound A or 10 μM of Compound 1 in DMEM+containing 1 μCi/ml 14C-acetate, D-glucose, hepes, glutamine, leucine, alanine, lactate, pyruvate, non-essential amino acids, BSA, and gentamicine. Control cells were exposed to the same media lacking lovastatin or the test compounds. All cells were exposed to 0.1% DMSO. Metabolic labeling with ^14C-acetate continued for 4 hr at 37° C. After labeling, cells were washed twice with 1 mL of PBS followed by addition of scintallant (Microscent E) and counted on Topcount®.

[3] = obese female Zucker rats, read-out: BHA, Percent Change from Pre-treatment
[4] = obese female Zucker rats, read-out: Glucose, Percent Change from Pre-treatment
[5] = obese female Zucker rats, read-out: HDL-C, Percent Change from Pre-treatment
[6] = obese female Zucker rats, read-out: Insulin, Percent Change from Pre-treatment
[7] = obese female Zucker rats, read-out: NEFA, Percent Change from Pre-treatment
[8] = obese female Zucker rats, read-out: Non HDL-C, Percent Change from Pre-treatment
[9] = obese female Zucker rats, read-out: TC, Percent Change from Pre-treatment
[10] = obese female Zucker rats, read-out: TG, Percent Change from Pre-treatment
[11] = obese female Zucker rats, oral gavage daily 14 days, 5 mg/kg
[12] = obese female Zucker rats, oral, 14 days, 100 mg/kg/day (Table 1)

Work on `CC(C)(CCCCC(=O)CCCCC(C)(C)COP(=O)(O)O)COP(=O)(O)O.N.N` [Compound D, Phosphoric Acid mono-(2,2,12,12-tetramethyl-7-oxo-13-phosphonooxytridecyl) ester, diammonium salt] yielded a melting point of 191 to 193 °C, a change in vivo at 10 mg/kg/day ([1]; obese female Zucker rats) of 12% and a change in vivo at 10 mg/kg [1, 3] of 123%. The change in vivo at 10 mg/kg [1, 4] was -5%, the change in vivo at 10 mg/kg [1, 5] was 5% and the change in vivo at 10 mg/kg [1, 6] was 4%. It also gave a change in vivo at 10 mg/kg [1, 7] of -13%, a change in vivo at 10 mg/kg [1, 8] of 25% and a change in vivo at 10 mg/kg [1, 9] of 8%. The change in vivo at 10 mg/kg [1, 10] was 11%, the change in vivo at 30 mg/kg/day ([1]; obese female Zucker rats) was 9% and the change in vivo at 30 mg/kg [1, 3] was 271%. For the same molecule, the change in vivo at 30 mg/kg [1, 4] was -4%, the change in vivo at 30 mg/kg [1, 5] was 28% and the change in vivo at 30 mg/kg [1, 6] was 2%. For the same molecule, the change in vivo at 30 mg/kg [1, 7] was -25%, the change in vivo at 30 mg/kg [1, 8] was 22% and the change in vivo at 30 mg/kg [1, 9] was 21%. It also gave a change in vivo at 30 mg/kg [1, 10] of -12%, a change in vivo at 100 mg/kg/day ([1]; obese female Zucker rats) of 8% and a change in vivo at 100 mg/kg [1, 3] of 814%. The change in vivo at 100 mg/kg [1, 4] was -3%, the change in vivo at 100 mg/kg [1, 5] was 57% and the change in vivo at 100 mg/kg [1, 6] was 14%. For the same molecule, the change in vivo at 100 mg/kg [1, 7] was -22%, the change in vivo at 100 mg/kg [1, 8] was 71% and the change in vivo at 100 mg/kg [1, 9] was 55%. The change in vivo at 100 mg/kg [1, 10] was -1%.

Work on `CC(C)(CO)CCCCN(O)CCCCC(C)(C)CO` [Compound I] yielded a melting point of 73 °C.

`CC(C)(CCCCCOCCCCCC(C)(C)COP(=O)(O)O)COP(=O)(O)O` gave an IC50 [2] of 28 µM.

For `CC(C)(CCCCCC(=O)CCCCCC(C)(C)COP(=O)(O)O)COP(=O)(O)O.N.N` [Compound E, Phosphoric Acid mono-(2,2,14,14-tetramethyl-8-oxo-15-phosphonooxy-pentadecyl) Ester, Diammonium Salt], the melting point was 187 to 189 °C, the change in vivo at 10 mg/kg/day ([1]; obese female Zucker rats) was 11% and the change in vivo at 10 mg/kg [1, 3] was 140%. The change in vivo at 10 mg/kg [1, 4] was -6%, the change in vivo at 10 mg/kg [1, 5] was 129% and the change in vivo at 10 mg/kg [1, 6] was 25%. For the same molecule, the change in vivo at 10 mg/kg [1, 7] was -5%, the change in vivo at 10 mg/kg [1, 8] was 6% and the change in vivo at 10 mg/kg [1, 9] was 3%. For the same molecule, the change in vivo at 10 mg/kg [1, 10] was 39%, the change in vivo at 30 mg/kg/day ([1]; obese female Zucker rats) was 10% and the change in vivo at 30 mg/kg [1, 3] was 73%. For the same molecule, the change in vivo at 30 mg/kg [1, 4] was -1%, the change in vivo at 30 mg/kg [1, 5] was 174% and the change in vivo at 30 mg/kg [1, 6] was -12%. It also gave a change in vivo at 30 mg/kg [1, 7] of -28%, a change in vivo at 30 mg/kg [1, 8] of 51% and a change in vivo at 30 mg/kg [1, 9] of 126%. For the same molecule, the change in vivo at 30 mg/kg [1, 10] was -2%, the change in vivo at 100 mg/kg/day ([1]; obese female Zucker rats) was 4% and the change in vivo at 100 mg/kg [1, 3] was 134%. The change in vivo at 100 mg/kg [1, 4] was -4%, the change in vivo at 100 mg/kg [1, 5] was 246% and the change in vivo at 100 mg/kg [1, 6] was -15%. The change in vivo at 100 mg/kg [1, 7] was -40%, the change in vivo at 100 mg/kg [1, 8] was 20% and the change in vivo at 100 mg/kg [1, 9] was 161%. The change in vivo at 100 mg/kg [1, 10] was -51%.

In the case of `CC(C)(CCCCCC(=O)CCCCCC(C)(C)COP(=O)(O)O)COP(=O)(O)O`, the IC50 [2] is reported as 35 µM.

In the case of `CC(C)(CO)CCCCOCCCCC(C)(C)CO` [Compound 1, bis(6-Hydroxy-5,5-dimethylhexyl)ether, reference compound], the “reduction of rates of total lipid synthesis” value ([2]; rat hepatocyte cells, 10 μM, 14C-acetate 4 hr, vs vehicle control) is reported as “at least 65%”, the blood glucose levels ([1]; fasted obese female Zucker rats, oral gavage daily 14 days, 5 mg/kg) is reported as “reduction” and the “serum insulin relative to pretreatment” value ([1]; fasted obese female Zucker rats, two weeks of treatment, 5 mg/kg) is reported as “increased”. For the same molecule, the “liver to body weight” value [1, 11] was “increased”, the serum total cholesterol [1, 11] was “only modestly elevated” and the “weight gain, percent of initial weight after two weeks” value [1, 11] was 1.5%. For the same molecule, the BHA [1, 12] was 1.6 ± 0.3, the Glucose [1, 12] was −25.3 ± 7.2 and the HDL-C [1, 12] was 113.9 ± 26.4. The Insulin [1, 12] was 42.1 ± 23, the NEFA [1, 12] was 0.056 ± 0.002 and the “Non HDL-C” value [1, 12] was −26.9 ± 9.3. The TC [1, 12] was −82.5 ± 3.6 and the TG [1, 12] was 468.8 ± 139.7.

`CC(=O)C(CCCCC(C)(C)CO)CCCCC(C)(C)CO` [drawing 124] gave an IC50 [2] of 62 µM.

`CC(C)(CO)CCCCOC(=O)CCCCC(C)(C)CO` [drawing 126] gave an IC50 [2] of 14 µM.

With `CC(C)(CO)CCCCN(O)CCCCC(C)(C)CO` [drawing 125] the IC50 [2] was 64 µM.

Molecule `CC(=O)C(CCCCC(C)(C)CO)CCCCC(C)(C)CO` [Compound G, 9-Hydroxy-3-(6-hydroxy-5,5-dimethylhexyl)-8,8-dimethylnonan-2-one] has a melting point of 178 to 180 °C.

With `CC(C)(CCCCOCCCCC(C)(C)COP(=O)(O)O)COP(=O)(O)O` the IC50 [2] was 43 µM.

Work on `CC(C)(CCCCC(=O)CCCCC(C)(C)COP(=O)(O)O)COP(=O)(O)O` yielded an IC50 [2] of 16 µM.
